Data: patent US20100168038A1, “USE OF COMPOUNDS IN COMBINATION WITH GAMMA-IRRADIATION FOR THE TREATMENT OF CANCER” (priority 2006, published 2010)

Key:
Format in all cases: cell-based, mouse
[1] = tested on: TPPII; test: Western blotting of TPPII expression in gamma-irradiated EL-4 cells; conditions: wortmannin treated gamma-irradiated EL-4 cells, 25 micro-M NLVS
Source text: (§1) Cells and Culture Conditions. EL-4 is a Benzpyrene-induced lymphoma cell line derived from the C57BI/6 mouse strain. EL-4.wt and EL-4.TPPII^i are EL-4 cells transfected with the pSUPER vector (Brummelkamp, T R, Bernards, R, Agami, R. A system for stable expression of short interfering RNAs in mammalian cells. Science 2002; 296:550-3), empty versus containing the siRNA directed against TPPII. HeLa cells are human cervical carcinoma cells. YAC-1 is a Moloney Leukemia Virus-induced lymphoma cell line derived from the A/Sn mouse strain. ALC is a T cell lymphoma induced by radiation leukemia virus D-RadLV, derived from the C57Bl/6 mouse strain. […]
(§2) Antibodies and Antisera. The following molecules were detected by the antibodies specified: Akt by rabbit anti-Akt serum (Cell Signaling Technology, Beverly, Mass.); Phospho-Akt (Ser 473) by 193H2 rabbit anti-phospho-Akt serum (Cell Signaling Technology, Beverly, Mass.); gamma-H2AX by rabbit anti-gamma-H2AX (Cell Signalling Technology, Beverly, Mass.); Mre11 by polyclonal rabbit anti-human Mre11 (Cell Signalling Technology, Beverly, Mass.); p21 by SX118 (R & D Systems, Minneapolis, Minn.); p53 (R & D Systems, Minneapolis, Minn.); Rae-1 by monoclonal Rat anti-mouse Rae-1, 199215 (R &D Systems, Minneapolis, Minn.); XIAP by monoclonal mouse anti-human XIAP, 117320 (R&D Systems, Minneapolis, Minn.). […]

[2] = tested on: p53; test: Western blotting of p53 expression in gamma-irradiated EL-4.TPPIIi cells; conditions: gamma-irradiated EL-4.TPPIIi cells treated with NLVS
Source text: as §1, §2

[3] = tested on: p53; test: Western blotting of p53-immunoprecipitates from EL-4 cell lysates; conditions: NLVS-treated EL-4.TPPIIi cells
Source text: Antibodies and Antisera. The following molecules were detected by the antibodies specified: Akt by rabbit anti-Akt serum (Cell Signaling Technology, Beverly, Mass.); Phospho-Akt (Ser 473) by 193H2 rabbit anti-phospho-Akt serum (Cell Signaling Technology, Beverly, Mass.); gamma-H2AX by rabbit anti-gamma-H2AX (Cell Signalling Technology, Beverly, Mass.); Mre11 by polyclonal rabbit anti-human Mre11 (Cell Signalling Technology, Beverly, Mass.); p21 by SX118 (R & D Systems, Minneapolis, Minn.); p53 (R & D Systems, Minneapolis, Minn.); Rae-1 by monoclonal Rat anti-mouse Rae-1, 199215 (R &D Systems, Minneapolis, Minn.); XIAP by monoclonal mouse anti-human XIAP, 117320 (R&D Systems, Minneapolis, Minn.). For detection of TPPII we used chicken anti-TPPII serum (Immunsystem, Uppsala, Sweden). Western blotting was performed by standard techniques. Protein concentration was measured by BCA Protein Assay Reagent (Pierce Chemical Co.). 5 micro-g of protein was loaded per lane for separation by SDS/PAGE unless stated otherwise.

## CC(C)C[C@@H](/C=C/S(C)(=O)=O)NC(=O)[C@H](CC(C)C)NC(=O)[C@H](CC(C)C)NC(=O)Cc1cc(I)c(O)c([N+](=O)[O-])c1 [NLVS, 4-hydroxy-5-iodo-3-nitrophenylacetyl-Leu-Leu-Leu-vinyl sulphone]
[1]
  down regulation of TPPII: inhibited down regulation of TPPII
[2]
  p53 expression: increased p53 expression
[3]
  ATM, 53BP1 and Mre11 in p53-immunoprecipitates: failed to show ATM, 53BP1 and Mre11
